Measurements reported in patent publication US9346809B2 (LEO PHARMA A/S, priority 2009, dated 2016).
Like-named read-outs stand apart in the source and are kept apart here.

Columns and labels:
Type in all cases: biochemical
[1] = molecular target: T1, JAK1 (aa 850-1154, catalytic domain, GST-tag) (Homo sapiens, UniProt P23458); assay: JAK kinase assay (HTRF, phosphorylation of TK substrate-biotin), JAK1; details: ATP at Km (7 μM), read-out: JAK1 kinase inhibitory activity (EC50 indicator)
T1 construct: JAK1 (aa 850-1154) and TYK2 (aa 871-1187) are expressed with an N-terminally fused GST-tag; GST (N); purchased Carna Biosciences, Inc; host or cells: baculovirus expression system
Description: (§1) Human baculovirus-expressed JAK1, 2, 3 and TYK2 were purchased from Carna Biosciences, Inc. All four purified enzymes contain only the catalytic domain. JAK1 (aa 850-1154) and TYK2 (aa 871-1187) are expressed with an N-terminally fused GST-tag, and JAK2 and JAK3 with an N-terminally fused His-tag.
(§2) Inhibition of phosphorylation of a synthetic peptide was measured in an HTRF-based assay using the TK substrate-Biotin from the Cisbio HTRFKinEASE TK kit. First, 2 μl of TK solution (TK substrate-biotin in kinase buffer [1× enzymatic buffer from HTRFKinEASE TK kit, 1 mM DTT]) is added to a plate containing 1 μl prediluted compound (final assay concentration DMSO: 0.75%). Then, 5 μl kinase-ATP mix (prepared in kinase buffer) is added to the wells and the plates are incubated at RT for 20-30 min. For all four kinases a concentration of ATP that corresponded to the Km for ATP was used. The final concentrations of buffers, substrate, kinase and ATP were: JAK1: 50 mM Hepes buffer pH 7.0, 0.01% BSA, 10 mM MgCl2, 1 mM DTT, 7 μM ATP, 50 nM SEB, 1 μM TK Substrate-Biotin and 5 ng JAK1; JAK2: 50 mM Hepes buffer pH 7.0, 0.01% BSA, 5 mM MgCl2, 1 mM DTT, 4 μM ATP, 1 μM TK Substrate-Biotin and 0.1 ng JAK2; JAK3: 50 mM Hepes buffer pH 7.0, 0.01% BSA, 5 mM MgCl2, 1 mM DTT, 2 μM ATP, 1 μM TK Substrate-Biotin and 0.3 ng JAK3; TYK2: 50 mM Hepes buffer pH 7.0, 0.01% BSA, 5 mM MgCl2, 1 mM DTT, 13 μM ATP, 50 nM SEB, 1 μM TK Substrate-Biotin and 0.8 ng TYK2. Thereafter, the kinase reaction is stopped by adding 4 μl detection mix (final concentrations: 50 mM Hepes buffer pH 7.0, 0.01% BSA, 0.8 M KF, 20 mM EDTA, 42 nM Streptavidin-XL665 and 1:400 STK Ab Cryptate) and the plates are incubated overnight in the dark. The HTRF signal is read using an Envision plate reader.
(§3) In Table 1 selected JAK kinase inhibitory activities are listed with the following indicators: I: EC50<100 nM, II: 100 nM≦EC50≦500 nM and III: EC50>500 nM

[2] = molecular target: T2, TYK2 (aa 871-1187, catalytic domain, GST-tag) (Homo sapiens, UniProt P29597); assay: JAK kinase assay (HTRF, phosphorylation of TK substrate-biotin), TYK2; details: ATP at Km (13 μM), read-out: TYK2 kinase inhibitory activity (EC50 indicator)
T2 construct: JAK1 (aa 850-1154) and TYK2 (aa 871-1187) are expressed with an N-terminally fused GST-tag; GST (N); purchased Carna Biosciences, Inc; host or cells: baculovirus expression system
T2 sequence (P29597 871-1187): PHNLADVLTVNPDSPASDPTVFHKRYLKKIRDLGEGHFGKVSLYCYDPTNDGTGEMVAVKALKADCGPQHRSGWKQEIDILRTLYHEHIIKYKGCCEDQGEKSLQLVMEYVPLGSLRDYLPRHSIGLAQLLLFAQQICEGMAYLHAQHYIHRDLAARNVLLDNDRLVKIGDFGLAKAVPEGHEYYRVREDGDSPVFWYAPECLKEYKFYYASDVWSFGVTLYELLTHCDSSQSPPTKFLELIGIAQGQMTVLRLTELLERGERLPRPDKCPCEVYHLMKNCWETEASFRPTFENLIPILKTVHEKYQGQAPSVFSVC
Description: as §1, §2, §3

[3] = molecular target: T3, JAK2 (catalytic domain, His-tag) (Homo sapiens, UniProt O60674); assay: JAK kinase assay (HTRF, phosphorylation of TK substrate-biotin), JAK2; details: ATP at Km (4 μM), read-out: JAK2 kinase inhibitory activity (EC50 indicator)
T3 construct: All four purified enzymes contain only the catalytic domain; His (N); purchased Carna Biosciences, Inc; host or cells: baculovirus expression system
Description: as §1, §2, §3

[4] = molecular target: T4, JAK3 (catalytic domain, His-tag) (Homo sapiens, UniProt P52333); assay: JAK kinase assay (HTRF, phosphorylation of TK substrate-biotin), JAK3; details: ATP at Km (2 μM), read-out: JAK3 kinase inhibitory activity (EC50 indicator)
T4 construct: All four purified enzymes contain only the catalytic domain; His (N); purchased Carna Biosciences, Inc; host or cells: baculovirus expression system
Description: as §1, §2, §3

T4 sequence (P52333 822-1111 limits assumed): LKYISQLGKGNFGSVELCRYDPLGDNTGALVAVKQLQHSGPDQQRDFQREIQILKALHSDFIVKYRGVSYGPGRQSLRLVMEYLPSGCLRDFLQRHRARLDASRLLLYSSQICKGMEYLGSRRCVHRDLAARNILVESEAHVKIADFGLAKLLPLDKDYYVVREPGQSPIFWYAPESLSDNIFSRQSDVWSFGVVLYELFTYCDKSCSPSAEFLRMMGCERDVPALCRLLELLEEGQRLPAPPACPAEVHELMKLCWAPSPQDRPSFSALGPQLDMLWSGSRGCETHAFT
T1 sequence (P23458 850-1154): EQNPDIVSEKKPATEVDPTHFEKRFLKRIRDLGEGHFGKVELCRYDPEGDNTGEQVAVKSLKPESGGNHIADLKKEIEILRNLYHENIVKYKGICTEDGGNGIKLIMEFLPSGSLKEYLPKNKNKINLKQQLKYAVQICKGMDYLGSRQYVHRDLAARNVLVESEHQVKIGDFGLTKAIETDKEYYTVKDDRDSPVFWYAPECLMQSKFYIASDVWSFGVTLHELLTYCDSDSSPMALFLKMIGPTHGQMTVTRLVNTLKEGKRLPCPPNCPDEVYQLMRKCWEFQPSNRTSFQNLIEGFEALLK
T3 sequence (O60674 849-1124 limits assumed): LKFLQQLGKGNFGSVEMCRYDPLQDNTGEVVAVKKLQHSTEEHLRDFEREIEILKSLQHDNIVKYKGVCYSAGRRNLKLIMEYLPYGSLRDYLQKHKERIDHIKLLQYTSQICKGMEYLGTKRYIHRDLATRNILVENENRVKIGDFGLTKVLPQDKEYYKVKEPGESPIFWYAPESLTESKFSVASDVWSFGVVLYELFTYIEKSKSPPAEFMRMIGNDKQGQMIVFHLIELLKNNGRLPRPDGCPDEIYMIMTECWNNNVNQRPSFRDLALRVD

| SMILES | EC50 ([1]; HTRF assay) [µM] | EC50 ([2]; HTRF assay) [µM] | EC50 ([3]; HTRF assay) [µM] | EC50 ([4]; HTRF assay) [µM] | EC50 [1] [µM] | EC50 [2] [µM] | EC50 [3] [µM] | EC50 [4] [µM] |
| --- | --- | --- | --- | --- | --- | --- | --- | --- |
| O=C(C1CCc2ccccc21)N1CCN(c2ncnc3[nH]ccc23)CC12CC2 (stereo not shown) [Example 413, Indan-1-yl-[7-(7H-pyrrolo[2,3-d]pyrimidin-4-yl)-4,7-diaza-spiro[2.5]oct-4-yl]-methanone] | 0.1 to 0.5 | > 0.5 | < 0.1 | 0.1 to 0.5 |  |  |  |  |
| CC(=O)NCC(=O)N1[C@@H]2CC[C@@H]1CN(c1ncnc3[nH]ccc13)C2 [Example 34, N-{2-Oxo-2-[3-(7H-pyrrolo[2,3-d]pyrimidin-4-yl)-3,8-diaza-bicyclo[3.2.1]oct-8-yl]-ethyl}acetamide] |  |  |  |  | > 0.5 | > 0.5 | > 0.5 | > 0.5 |
| CCOC(=O)N1[C@@H]2CC[C@H]1CN(c1ncnc3[nH]ccc13)C2 [Example 52, 3-(7H-Pyrrolo[2,3-d]pyrimidin-4-yl)-3,8-diazabicyclo[3.2.1]octane-8-carboxylic acid ethyl ester] |  |  |  |  | 0.1 to 0.5 | 0.1 to 0.5 | < 0.1 | 0.1 to 0.5 |
| N#Cc1ccc(C(=O)N2CCN(c3nc(N)nc4[nH]ccc34)CC23CC3)cc1 [Example 303, 4-[7-(2-Amino-7H-pyrrolo[2,3-d]pyrimidin-4-yl)-4,7-diaza-spiro[2.5]octane-4-carbonyl]-benzonitrile] | < 0.1 | > 0.5 | < 0.1 | 0.1 to 0.5 |  |  |  |  |
| O=C(c1cc2ccccc2[nH]1)N1[C@@H]2CC[C@H]1CN(c1ncnc3[nH]ccc13)C2 [Example 348, (1H-Indol-2-yl)-[3-(7H-pyrrolo[2,3-d]pyrimidin-4-yl)-3,8-diaza-bicyclo[3.2.1]oct-8-yl]-methanone] | < 0.1 | > 0.5 | < 0.1 | < 0.1 |  |  |  |  |
| Cc1cc(S(N)(=O)=O)ccc1OCC(=O)N1CCN(c2ncnc3[nH]ccc23)CC12CC2 [Example 411, 3-Methyl-4-{2-oxo-2-[7-(7H-pyrrolo[2,3-d]pyrimidin-4-yl)-4,7-diaza-spiro[2.5]oct-4-yl]-ethoxy}-benzenesulfonamide] | < 0.1 | < 0.1 | < 0.1 | < 0.1 |  |  |  |  |
| Cc1ccc2sc(C(=O)N3CCN(c4ncnc5[nH]ccc45)CC34CC4)cc2c1 [Example 297, (5-Methyl-benzo[b]thiophen-2-yl)-[7-(7H-pyrrolo[2,3-d]pyrimidin-4-yl)-4,7-diaza-spiro[2.5]oct-4-yl]-methanone] | < 0.1 | 0.1 to 0.5 | < 0.1 | 0.1 to 0.5 |  |  |  |  |
| O=C(c1ccc(-c2ccccc2)s1)N1CCN(c2ncnc3[nH]ccc23)CC12CC2 [Example 215, (5-Phenyl-thiophen-2-yl)-[7-(7H-pyrrolo[2,3-d]pyrimidin-4-yl)-4,7-diaza-spiro[2.5]oct-4-yl]-methanone] | < 0.1 | 0.1 to 0.5 | < 0.1 | 0.1 to 0.5 |  |  |  |  |
| N#Cc1ccc(CC(=O)N2CCN(c3ncnc4[nH]ccc34)CC23CC3)cc1 [Example 35, 4-{2-Oxo-2-[7-(7H-pyrrolo[2,3-d]pyrimidin-4-yl)-4,7-diazaspiro[2.5]oct-4-yl]-ethyl}benzonitrile] |  |  |  |  | < 0.1 | < 0.1 | < 0.1 | < 0.1 |
| COCCOCC(=O)Nc1nc(N2CCN(C(=O)Cc3ccc(C#N)cc3)C3(CC3)C2)c2cc[nH]c2n1 [Example 96, N-(4-{4-[2-(4-Cyano-phenyl)-acetyl]-4,7-diaza-spiro[2.5]oct-7-yl}-7H-pyrrolo[2,3-d]pyrimidin-2-yl)-2-(2-methoxy-ethoxy)-acetamide] |  |  |  |  | < 0.1 | > 0.5 | < 0.1 | 0.1 to 0.5 |
| N#Cc1cccc(CS(=O)(=O)N2CCN(c3ncnc4[nH]ccc34)CC23CC3)c1 [Example 76, 3-[7-(7H-Pyrrolo[2,3-d]pyrimidin-4-yl)-4,7-diaza-spiro[2.5]octane-4-sulfonylmethyl]-benzonitrile] |  |  |  |  | < 0.1 | > 0.5 | < 0.1 | 0.1 to 0.5 |
| O=C(c1cc2c(s1)CCC2)N1C2CCC1CN(c1ncnc3[nH]ccc13)C2 [Example 139, (5,6-Dihydro-4H-cyclopenta[b]thiophen-2-yl)-[3-(7H-pyrrolo[2,3-d]pyrimidin-4-yl)-3,8-diaza-bicyclo[3.2.1]oct-8-yl]-methanone] |  |  |  |  | < 0.1 | > 0.5 | < 0.1 | 0.1 to 0.5 |
| O=C(c1cc2cc(F)cc(F)c2[nH]1)N1CCN(c2ncnc3[nH]ccc23)CC12CC2 [Example 192, (5,7-Difluoro-1H-indol-2-yl)-[7-(7H-pyrrolo[2,3-d]pyrimidin-4-yl)-4,7-diaza-spiro[2.5]oct-4-yl]-methanone] |  |  |  |  | < 0.1 | < 0.1 | < 0.1 | < 0.1 |
| COC(=O)c1cc2c(N3CCN(C(=O)CCC#N)C4(CC4)C3)ncnc2[nH]1 [Example 340] | > 0.5 | > 0.5 | > 0.5 | > 0.5 |  |  |  |  |
| O=C(c1cc2ccccc2s1)N1CCN(c2ncnc3[nH]ccc23)CC12CCCC2 [Example 75, Benzo[b]thiophen-2-yl-[9-(7H-pyrrolo[2,3-d]pyrimidin-4-yl)-6,9-diaza-spiro[4.5]dec-6-yl]-methanone] |  |  |  |  | > 0.5 | > 0.5 | > 0.5 | > 0.5 |
| Cc1c[nH]c2ncnc(N3CCN(C(=O)CCCC#N)C4(CC4)C3)c12 [Example 332, 5-[7-(5-Methyl-7H-pyrrolo[2,3-d]pyrimidin-4-yl)-4,7-diaza-spiro[2.5]oct-4-yl]-5-oxo-pentanenitrile] | > 0.5 | > 0.5 | > 0.5 | > 0.5 |  |  |  |  |
| N#Cc1cccc(C(=O)N2CCN(c3nc(N)nc4[nH]ccc34)CC23CC3)c1 [Example 304, 3-[7-(2-Amino-7H-pyrrolo[2,3-d]pyrimidin-4-yl)-4,7-diaza-spiro[2.5]octane-4-carbonyl]-benzonitrile] | < 0.1 | 0.1 to 0.5 | < 0.1 | < 0.1 |  |  |  |  |
| O=C(c1ccc2sccc2c1)N1CCN(c2ncnc3[nH]ccc23)CC12CC2 [Example 106, Benzo[b]thiophen-5-yl-[7-(7H-pyrrolo[2,3-d]pyrimidin-4-yl)-4,7-diaza-spiro[2.5]oct-4-yl]-methanone] |  |  |  |  | < 0.1 | 0.1 to 0.5 | < 0.1 | 0.1 to 0.5 |
| COCCS(=O)(=O)c1ccc(C(=O)N2CCN(c3ncnc4[nH]ccc34)CC23CC3)cc1 [Example 433, [4-(2-Methoxy-ethanesulfonyl)-phenyl]-[7-(7H-pyrrolo[2,3-d]pyrimidin-4-yl)-4,7-diaza-spiro[2.5]oct-4-yl]-methanone] | < 0.1 | 0.1 to 0.5 | < 0.1 | 0.1 to 0.5 |  |  |  |  |
